How the values were obtained:
in vitro = details: human, Caco-2
Rat pharmacokinetics = details: in vivo
Text: Table S1. Compound 31cross species PK data.

in vivo = details: dog
Text: IV formulation vehicle for rat: 15% DMA / 50%PEG / 35% D5W; for dog: 5% DMA /
PO formulation vehicle for mouse and rat: a suspension in 0.5% CMC / 0.25% Tween80, as a
suspension; for dog: a suspension in 0.5% methyl cellulose / 0.25% Tween80

[1] = Plasma protein binding, rat; type: in vitro ADME; details: read-out: Plasma Protein Binding %, r (converted)
CYP2D6 = CYP2D6 (Homo sapiens, UniProt P10635); experiment: Cytochrome P450 inhibition, 2D6; type: in vitro ADME; details: read-out: Cytochrome P450s IC50, 2D6
CYP2D6, sequence (P10635 whole entry): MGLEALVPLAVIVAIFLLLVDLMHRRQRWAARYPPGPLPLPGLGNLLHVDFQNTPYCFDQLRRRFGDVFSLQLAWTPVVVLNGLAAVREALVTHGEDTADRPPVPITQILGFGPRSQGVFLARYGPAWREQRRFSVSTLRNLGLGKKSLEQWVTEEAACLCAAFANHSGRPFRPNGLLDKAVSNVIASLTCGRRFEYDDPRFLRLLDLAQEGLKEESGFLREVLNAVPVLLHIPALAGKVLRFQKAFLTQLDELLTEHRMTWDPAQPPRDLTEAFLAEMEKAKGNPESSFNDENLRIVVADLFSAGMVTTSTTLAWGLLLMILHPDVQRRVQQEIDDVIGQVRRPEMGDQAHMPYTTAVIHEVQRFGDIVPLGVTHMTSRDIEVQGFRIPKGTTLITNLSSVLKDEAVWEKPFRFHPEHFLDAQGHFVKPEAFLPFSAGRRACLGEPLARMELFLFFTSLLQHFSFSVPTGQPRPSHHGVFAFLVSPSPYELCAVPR

CYP2C8 = target: T1, CYP2C8 (Homo sapiens, UniProt P10632); experiment: Cytochrome P450 inhibition, 2C8; type: in vitro ADME; details: read-out: Cytochrome P450s IC50, 2C8
T1 sequence (P10632 1-490): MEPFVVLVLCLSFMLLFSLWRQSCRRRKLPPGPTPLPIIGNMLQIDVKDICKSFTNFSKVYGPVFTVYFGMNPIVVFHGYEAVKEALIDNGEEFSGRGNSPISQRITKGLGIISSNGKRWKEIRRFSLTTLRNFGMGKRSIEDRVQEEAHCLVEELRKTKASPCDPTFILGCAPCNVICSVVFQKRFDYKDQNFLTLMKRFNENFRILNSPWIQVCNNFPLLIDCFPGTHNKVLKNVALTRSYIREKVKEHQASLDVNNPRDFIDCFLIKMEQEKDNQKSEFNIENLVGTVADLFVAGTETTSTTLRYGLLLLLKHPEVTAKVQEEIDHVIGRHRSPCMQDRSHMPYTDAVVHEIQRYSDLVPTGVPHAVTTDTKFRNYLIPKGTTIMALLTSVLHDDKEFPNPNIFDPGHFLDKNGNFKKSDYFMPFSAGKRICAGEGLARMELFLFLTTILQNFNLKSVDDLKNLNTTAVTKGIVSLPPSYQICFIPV

[2] = Exploratory toxicological evaluation in vivo
Text: Showing no in vitro safety concerns (Table 7), it was progressed into in vivo safety evaluation studies. […] Since the mechanism of action of this series of compounds is not known, the best approach was to design analogs that would limit exposure within the brain.

TK6 cells = experiment: Micronucleus test; type: cell-based; details: presence and absence of rat liver S9

In the case of Cc1cccnc1Nc1nc(-c2ccc(OC3CCN(C4CC4)CC3)cn2)ns1 [Compound 19, 3-[5-[(1-Cyclopropyl-4-piperidyl)oxy]-2-pyridyl]-N-(3-methyl-2-pyridyl)-1,2,4-thiadiazol-5-amine], the efflux ratio (in vitro) is reported as 0.9.
Compound CC(C)Oc1ccc(-c2nsc(Nc3ncccc3N(C)C)n2)nc1 [Compound 31, N^2-(3-(5-Isopropoxypyridin-2-yl)-1,2,4-thiadiazol-5-yl)-N3,N3-dimethylpyridine-2,3-diamine] has a clearance (Rat pharmacokinetics; iv, i.v. 2 mg/kg, mean ±SD) of 0.493 ± 0.163 L/h/kg, a Vd (Rat pharmacokinetics; iv, i.v. 2 mg/kg, read-out: Vss) of 2.07 ± 0.92 L/kg and an AUC(0-inf) (Rat pharmacokinetics; po, p.o. 10 mg/kg) of 38.1 ± 5.1 µM·h. For the same compound, the Cmax (Rat pharmacokinetics; po, p.o. 10 mg/kg) was 6.28 ± 0.9 µM, the Tmax (Rat pharmacokinetics; po, p.o. 10 mg/kg) was 2 h and the bioavailability (Rat pharmacokinetics; po, p.o. 10 mg/kg) was 63 ± 20%. The Vd (in vivo; iv, 2 mg/kg) was 3.08 ± 0.03 L/kg, the clearance (in vivo; iv, 2 mg/kg) was 1.13 ± 0.162 L/h/kg and the AUC(0-inf) (in vivo; po, 3 mg/kg) was 4.02 ± 1.03 µM·h. The Cmax (in vivo; po, 3 mg/kg) was 1.41 ± 0.53 µM, the Tmax (in vivo; po, 3 mg/kg) was 1.2 ± 0.8 h and the bioavailability (in vivo; po, 3 mg/kg) was 55 ± 21%. The fraction unbound [1] was < 0.01, the IC50 (CYP2D6) was > 30 µM and the IC50 (CYP2C8) was 7.1 µM. For the same compound, the “exploratory toxicological evaluation, observations” value [2] was “CNS (central nervous system)-related observations were noted”.
With CC(=O)N(C)c1cccnc1Nc1nc(-c2ccc(OC(C)C)cn2)ns1 [Compound 47, N-(2-((3-(5-Isopropoxypyridin-2-yl)-1,2,4-thiadiazol-5-yl)amino)pyridin-3-yl)-N-methylacetamide] the fraction unbound [1] was 0.05, the IC50 (CYP2D6) was 30 µM and the IC50 (CYP2C8) was > 30 µM. The micronucleus (TK6 cells) was “negative”.

Source: publication PMC9421654, “Discovery of Substituted Di(pyridin-2-yl)-1,2,4-thiadiazol-5-amines as Novel Macrofilaricidal Compounds for the Treatment of Human Filarial Infections” (Journal of Medicinal Chemistry, 2022)
